# Laboratory results: EP4206196A1, “PYRIMIDINE SUBSTITUTED DERIVATIVES AS TYK2 INHIBITORS” (Almirall S.A., priority 2021, dated 2023)
# Assays:
# [1] = tested on: STAT1/3 through TYK2/JAK1; assay: IFNa induced STAT phosphorylation in HEK293 cells (SIE-bla reporter gene); assay type: cell-based; settings: Homo sapiens, HEK293; HEK293T-sie-bla cells, IFNa at EC80, 4 hours; read-out: Inhibition of IFNa induced STAT phosphorylation HEK293 cells IC50
# In short: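 HEK293T cells carrying a SIE-driven β-lactamase reporter were co-treated with compound (1/5 serial dilution, 10 points, 0.1% DMSO final) and IFNa at EC80 for 4 h at 37°C. β-Lactamase substrate was added to stop the stimulation, followed by overnight dark incubation and FRET read. IC50 from a four-parameter logistic fit.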
# [2] = molecular target: T1, TYK2 (JH2domain-pseudokinase) (Homo sapiens, UniProt P29597); assay: TYK2 JH2 domain binding assay (KINOMEscan)
# T1 construct: TYK2 (JH2domain-pseudokinase)-tagged T7 phage strains were prepared in an E. coli host derived from the BL21 strain; made in house; host or cells: E. coli BL21-derived host (T7 phage) or HEK-293 cells
# In short: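 Competition binding of DNA-tagged TYK2 JH2 pseudokinase domain against immobilised affinity ligand, 1 h at room temperature in SeaBlock/PBS/Tween/DTT buffer with about 1% DMSO. Bound kinase eluted and quantified by qPCR. Kd taken from 11-point 3-fold series, usually 30,000 nM top, fitted by Levenberg-Marquardt nonlinear least squares.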
# T1 sequence (P29597 589-875 limits assumed): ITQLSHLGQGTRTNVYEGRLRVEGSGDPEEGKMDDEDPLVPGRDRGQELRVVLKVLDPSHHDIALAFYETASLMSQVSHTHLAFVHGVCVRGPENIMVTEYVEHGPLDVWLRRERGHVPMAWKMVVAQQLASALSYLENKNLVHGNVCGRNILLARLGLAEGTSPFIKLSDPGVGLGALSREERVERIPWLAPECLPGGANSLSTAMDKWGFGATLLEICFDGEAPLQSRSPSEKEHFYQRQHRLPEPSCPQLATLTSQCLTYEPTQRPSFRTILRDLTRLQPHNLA
SMILES,IC50 [1] [nM],Kd [2] [nM]
"COc1ccc(C)nc1Nc1cc(Nc2cc(C)nc(C)n2)ncn1 [Example 8, N4-(2,6-dimethylpyrimidin-4-yl)-N6-(3-methoxy-6-methyl-2-pyridyl)pyrimidine-4,6-diamine]",> 1000,> 10
"COc1c(Nc2cc(Nc3cc(C)nc(C)n3)ncn2)cccc1-c1ncn(CC2CC(F)(F)C2)n1 [Example 53, N6-[3-[1-[(3,3-difluorocyclobutyl)methyl]-1,2,4-triazol-3-yl]-2-methoxyphenyl]-N4-(2,6-dimethylpyrimidin-4-yl)pyrimidine-4,6-diamine]",100 to 1000,0.2 to 1
"COc1c(Nc2cc(Nc3cc(C)nc(C)n3)ncn2)cccc1-c1cc(C(F)(F)F)nn1C [Example 36, N6-(2,6-dimethylpyrimidin-4-yl)-N4-[2-methoxy-3-[2-methyl-5-(trifluoromethyl)pyrazol-3-yl]phenyl]pyrimidine-4,6-diamine]",> 1000,1 to 10
"COc1c(Nc2cc(Nc3cc(C)ncn3)ncn2)cc(C)cc1-c1ncn(C)n1 [Example 104, 4-N-[2-methoxy-5-methyl-3-(1-methyl-1,2,4-triazol-3-yl)phenyl]-6-N-(6-methylpyrimidin-4-yl)pyrimidine-4,6-diamine]",100 to 1000,0.2 to 1
"COc1c(-c2noc(C)n2)ccnc1Nc1cc(Nc2cc(C)nc(C)n2)ncn1 [Example 159, 4-N-(2,6-dimethylpyrimidin-4-yl)-6-N-[3-methoxy-4-(5-methyl-1,2,4-oxadiazol-3-yl)pyridin-2-yl]pyrimidine-4,6-diamine]",< 10,< 0.2
"Cc1cc(Nc2cc(Nc3nc(C)c(-c4cnn(C)c4)cc3N(C)S(C)(=O)=O)ncn2)ncn1 [Example 162, N-methyl-N-[6-methyl-5-(1-methylpyrazol-4-yl)-2-[[6-[(6-methylpyrimidin-4-yl)amino]pyrimidin-4-yl]amino]-3-pyridyl]methanesulfonamide]",< 10,< 0.2
"Cc1cc(Nc2cc(Nc3ccc(Br)cc3N(C)S(C)(=O)=O)ncn2)nc(C)n1 [Example 67, N-[5-bromo-2-[[6-[(2,6-dimethylpyrimidin-4-yl)amino]pyrimidin-4-yl]amino]phenyl]-N-methyl-methanesulfonamide]",10 to 100,< 0.2
"Cc1cc(Nc2cc(Nc3ccc(C4CCOC4)cc3N(C)S(C)(=O)=O)ncn2)nc(C)n1 (stereo not shown) [Example 111, N-[2-[[6-[(2,6-dimethylpyrimidin-4-yl)amino]pyrimidin-4-yl]amino]-5-tetrahydrofuran-3-yl-phenyl]-N-methyl-methanesulfonamide]",10 to 100,< 0.2
"COCc1ccc(Nc2cc(Nc3cc(C)nc(C)n3)ncn2)c(N(C)S(C)(=O)=O)c1 [Example 115, N-[2-[[6-[(2,6-dimethylpyrimidin-4-yl)amino]pyrimidin-4-yl]amino]-5-(methoxymethyl)phenyl]-N-methyl-methanesulfonamide]",< 10,< 0.2
"CCn1cnc(-c2cccc(Nc3cc(Nc4cc(C)nc(C)n4)ncn3)c2OC)n1 [Example 46, N4-(2,6-dimethylpyrimidin-4-yl)-N6-[3-(1-ethyl-1,2,4-triazol-3-yl)-2-methoxy-phenyl]pyrimidine-4,6-diamine]",10 to 100,< 0.2
"COc1cc(C(=O)N2CCCC2)ccc1Nc1cc(Nc2cc(C)nc(C)n2)ncn1 [Example 78, [4-[[6-[(2,6-dimethylpyrimidin-4-yl)amino]pyrimidin-4-yl]amino]-3-methoxy-phenyl]-pyrrolidin-1-yl-methanone]",> 1000,1 to 10
"Cc1cc(Nc2cc(Nc3ncccc3P(C)(C)=O)ncn2)nc(C)n1 [Example 145, N6-(3-dimethylphosphoryl-2-pyridyl)-N4-(2,6-dimethylpyrimidin-4-yl)pyrimidine-4,6-diamine]",10 to 100,< 0.2
"COc1c(-c2nc(C)n(C)n2)ccnc1Nc1cc(Nc2cc(C)nc(C)n2)ncn1 [Example 148, N4-(2,6-dimethylpyrimidin-4-yl)-N6-[4-(1,5-dimethyl-1,2,4-triazol-3-yl)-3-methoxy-2-pyridyl]pyrimidine-4,6-diamine]",10 to 100,< 0.2
"COc1c(Nc2cc(Nc3cc(C)nc(C)n3)ncn2)cccc1-c1nnn(C)n1 [Example 41, N4-(2,6-dimethylpyrimidin-4-yl)-N6-[2-methoxy-3-(2-methyltetrazol-5-yl)phenyl]pyrimidine-4,6-diamine]",10 to 100,< 0.2
"Cc1cc(Nc2cc(Nc3ncc(C4CCCCO4)cc3N(C)S(C)(=O)=O)ncn2)nc(C)n1 (stereo not shown) [Example 167, N-[2-[[6-[(2,6-dimethylpyrimidin-4-yl)amino]pyrimidin-4-yl]amino]-5-tetrahydropyran-2-yl-3-pyridyl]-N-methyl-methanesulfonamide]",< 10,< 0.2
"Cc1c(-c2cnc(Nc3cc(NC(=O)C4CC4)ncn3)c(P(C)(C)=O)c2)cnn1C [Example 161, N-[6-[[3-dimethylphosphoryl-5-(1,5-dimethylpyrazol-4-yl)-2-pyridyl]amino]pyrimidin-4-yl]cyclopropanecarboxamide]",10 to 100,< 0.2
"COc1c(F)cccc1Nc1cc(Nc2cc(C)nc(C)n2)ncn1 [Example 7, N6-(2,6-dimethylpyrimidin-4-yl)-N4-(3-fluoro-2-methoxy-phenyl) pyrimidine-4,6-diamine]",> 1000,> 10
"Cc1cc(Nc2cc(Nc3ccccc3N(C)S(=O)(=O)C(F)(F)F)ncn2)nc(C)n1 [Example 71, N-[2-[[6-[(2,6-dimethylpyrimidin-4-yl)amino]pyrimidin-4-yl]amino]phenyl]-1,1,1-trifluoro-N-methyl-methanesulfonamide]",10 to 100,< 0.2
"CN=S(C)(=O)c1cccnc1Nc1cc(Nc2cc(C)nc(C)n2)ncn1 (stereo not shown) [Example 164, N4-(2,6-dimethylpyrimidin-4-yl)-N6-[3-(N,S-dimethylsulfonimidoyl)-2-pyridyl]pyrimidine-4,6-diamine]",10 to 100,< 0.2
"COc1c(Nc2cc(Nc3cc(C)nc(C)n3)ncn2)cccc1-c1ncn(CC2CCOCC2)n1 [Example 52, N4-(2,6-dimethylpyrimidin-4-yl)-N6-[2-methoxy-3-[1-(tetrahydropyran-4-ylmethyl)-1,2,4-triazol-3-yl]phenyl]pyrimidine-4,6-diamine]",100 to 1000,0.2 to 1
"Cc1cc(Nc2cc(Nc3ncc(-c4ncnn4C)cc3N(C)S(C)(=O)=O)ncn2)nc(C)n1 [Example 130, N-[2-[[6-[(2,6-dimethylpyrimidin-4-yl)amino]pyrimidin-4-yl]amino]-5-(2-methyl-1,2,4-triazol-3-yl)-3-pyridyl]-N-methyl-methanesulfonamide]",100 to 1000,0.2 to 1
"COc1cc(-c2cnn(C)c2C)c(C)nc1Nc1cc(Nc2cc(C)ncn2)ncn1 [Example 176, N6-[5-(1,5-dimethylpyrazol-4-yl)-3-methoxy-6-methyl-2-pyridyl]-N4-(6-methylpyrimidin-4-yl)pyrimidine-4,6-diamine]",10 to 100,0.2 to 1
"Cc1cc(Nc2cc(Nc3ncc(-c4nc(C(F)(F)F)n(C)n4)cc3N(C)S(C)(=O)=O)ncn2)nc(C)n1 [Example 122, N-[2-[[6-[(2,6-dimethylpyrimidin-4-yl)amino]pyrimidin-4-yl]amino]-5-[1-methyl-5-(trifluoromethyl)-1,2,4-triazol-3-yl]-3-pyridyl]-N-methyl-methanesulfonamide]",10 to 100,< 0.2
"COc1cc(C#N)cnc1Nc1cc(Nc2cc(C)nc(C)n2)ncn1 [Example 27, 6-[[6-[(2,6-dimethylpyrimidin-4-yl)amino]pyrimidin-4-yl]amino]-5-methoxy-pyridine-3-carbonitrile]",> 1000,> 10
"Cc1c(-c2cnc(Nc3cc(Nc4ccc(F)cn4)ncn3)c(S(C)(=O)=O)c2)cnn1C [Example 152, N4-[5-(1,5-dimethylpyrazol-4-yl)-3-methylsulfonyl-2-pyridyl]-N6-(5-fluoro-2-pyridyl)pyrimidine-4,6-diamine]",< 10,< 0.2
"CN=S(C)(=O)c1cc(-c2cnn(C)c2C)cnc1Nc1cc(Nc2cc(C)nc(C)n2)ncn1 (stereo not shown) [Example 168, N6-[5-(1,5-dimethylpyrazol-4-yl)-3-(N,S-dimethylsulfonimidoyl)-2-pyridyl]-N4-(2,6-dimethylpyrimidin-4-yl)pyrimidine-4,6-diamine]",< 10,< 0.2
"Cc1cc(Nc2cc(Nc3ccccc3P(C)(C)=O)ncn2)nc(C)n1 [Example 28, 4-N-(2-dimethylphosphorylphenyl)-6-N-(2,6-dimethylpyrimidin-4-yl)pyrimidine-4,6-diamine]",> 1000,0.2 to 1
"Cc1cc(Nc2cc(Nc3ccccc3S(C)(=O)=O)ncn2)nc(C)n1 [Example 11, N6-(2,6-dimethylpyrimidin-4-yl)-N4-(2-methylsulfonylphenyl)pyrimidine-4,6-diamine]",10 to 100,0.2 to 1
"COc1c(Nc2cc(Nc3cc(C)nc(C)n3)ncn2)cccc1-c1ccnnc1 [Example 42, N6-(2,6-dimethylpyrimidin-4-yl)-N4-(2-methoxy-3-pyridazin-4-yl-phenyl)pyrimidine-4,6-diamine]",> 1000,1 to 10
